Laboratory results published in PMC5218480 (PLoS ONE, 2017).

Tested on: MV-4-11 cells
Test: Gene expression microarray analysis (Affymetrix PrimeView) and GSEA
Format: cell-based, human
Set-up: RFU PODN (11730768_x_at) / Fold change /veh PODN (11730768_x_at) / RFU LINC00158 (11744669_a_at) / Fold change /veh LINC00158 (11744669_a_at) / RFU DUSP10 (11751237_a_at) / Fold change /veh DUSP10 (11751237_a_at) / RFU ID3 (11757404_x_at) / Fold change /veh ID3 (11757404_x_at) / RFU PLEKHG5 (11737974_s_at) / Fold change /veh PLEKHG5 (11737974_s_at) / RFU LRRC4B (11730491_at) / Fold change /veh LRRC4B (11730491_at) / RFU GIMAP4 (11747438_a_at) / Fold change /veh GIMAP4 (11747438_a_at) / RFU KRT8 (11758183_x_at) / Fold change /veh KRT8 (11758183_x_at) / RFU CNN1 (11734310_a_at) / Fold change /veh CNN1 (11734310_a_at) / RFU VPS37D (11726825_at) / Fold change /veh VPS37D (11726825_at) / RFU C10orf10 (11716522_x_at) / Fold change /veh C10orf10 (11716522_x_at) / RFU KIR2DL2 /// KIR2DL4 /// KIR2DL5A /// KIR2DL5B /// KIR2DS1 /// KIR2DS2 /// KIR2DS3 /// KIR2DS4 /// KIR3DL3 /// KIR3DL3 /// KIR3DS1 (11738374_at) / Fold change /veh KIR2DL2 /// KIR2DL4 /// KIR2DL5A /// KIR2DL5B /// KIR2DS1 /// KIR2DS2 /// KIR2DS3 /// KIR2DS4 /// KIR3DL3 /// KIR3DL3 /// KIR3DS1 (11738374_at) / RFU C1QL1 (11718748_at) / Fold change /veh C1QL1 (11718748_at) / RFU TMPRSS4 (11747572_a_at) / Fold change /veh TMPRSS4 (11747572_a_at) / RFU HAMP (11756126_x_at) / Fold change /veh HAMP (11756126_x_at) / RFU RNFT2 (11725882_a_at) / Fold change /veh RNFT2 (11725882_a_at) / RFU NR4A2 (11747474_a_at) / Fold change /veh NR4A2 (11747474_a_at) / RFU ABCC12 (11746883_a_at) / Fold change /veh ABCC12 (11746883_a_at) / RFU TMEM136 (11760407_x_at) / Fold change /veh TMEM136 (11760407_x_at) / RFU CLDN22 /// WWC2 (11732394_at) / Fold change /veh CLDN22 /// WWC2 (11732394_at) / RFU HLA-DPB1 (11760878_x_at) / Fold change /veh HLA-DPB1 (11760878_x_at) / RFU SPINT1 (11716480_a_at) / Fold change /veh SPINT1 (11716480_a_at) / RFU GAP43 (11754022_s_at) / Fold change /veh GAP43 (11754022_s_at) / RFU A4GNT (11735810_at) / Fold change /veh A4GNT (11735810_at) / RFU PRB3 (11715151_x_at) / Fold change /veh PRB3 (11715151_x_at) / RFU TUBB4B (11761932_at) / Fold change /veh TUBB4B (11761932_at) / RFU CAPN14 (11732068_a_at) / Fold change /veh CAPN14 (11732068_a_at) / RFU TMCC2 (11721928_a_at) / Fold change /veh TMCC2 (11721928_a_at) / RFU IRGQ (11745062_a_at) / Fold change /veh IRGQ (11745062_a_at) / RFU FAM174B (11720279_a_at) / Fold change /veh FAM174B (11720279_a_at) / RFU TMPRSS4 (11748680_a_at) / Fold change /veh TMPRSS4 (11748680_a_at) / RFU FAM212B (11763350_a_at) / Fold change /veh FAM212B (11763350_a_at) / RFU PLEKHG5 (11743358_a_at) / Fold change /veh PLEKHG5 (11743358_a_at) / RFU ZSCAN30 (11745921_a_at) / Fold change /veh ZSCAN30 (11745921_a_at) / RFU CMKLR1 (11741424_a_at) / Fold change /veh CMKLR1 (11741424_a_at) / RFU LOC101060620 /// MAPK8IP1 (11723275_at) / Fold change /veh LOC101060620 /// MAPK8IP1 (11723275_at) / RFU SPTSSB (11747773_x_at) / Fold change /veh SPTSSB (11747773_x_at) / RFU PRSS12 (11739890_at) / Fold change /veh PRSS12 (11739890_at) / RFU BIN1 (11741810_x_at) / Fold change /veh BIN1 (11741810_x_at) / RFU WNT11 (11732464_a_at) / Fold change /veh WNT11 (11732464_a_at) / RFU C10orf10 (11716521_a_at) / Fold change /veh C10orf10 (11716521_a_at) / RFU C5orf56 (11738089_at) / Fold change /veh C5orf56 (11738089_at) / RFU CYB561 (11721691_x_at) / Fold change /veh CYB561 (11721691_x_at) / RFU ANKRD19P (11752326_a_at) / Fold change /veh ANKRD19P (11752326_a_at) / RFU OR2T12 /// OR2T33 /// OR2T8 (11738714_s_at) / Fold change /veh OR2T12 /// OR2T33 /// OR2T8 (11738714_s_at) / RFU VCAN (11748164_a_at) / Fold change /veh VCAN (11748164_a_at) / RFU JSRP1 (11732532_at) / Fold change /veh JSRP1 (11732532_at) / RFU KRTAP10-11 (11738290_x_at) / Fold change /veh KRTAP10-11 (11738290_x_at) / RFU MYO3A (11730013_a_at) / Fold change /veh MYO3A (11730013_a_at) / RFU EBF3 (11725865_a_at) / Fold change /veh EBF3 (11725865_a_at) / RFU CAMK2N1 (11719241_x_at) / Fold change /veh CAMK2N1 (11719241_x_at) / RFU C5orf56 (11738088_a_at) / Fold change /veh C5orf56 (11738088_a_at) / RFU OLFML3 (11715873_a_at) / Fold change /veh OLFML3 (11715873_a_at) / RFU LOC100653217 /// NTM (11731650_a_at) / Fold change /veh LOC100653217 /// NTM (11731650_a_at) / RFU MAPK11 (11762145_a_at) / Fold change /veh MAPK11 (11762145_a_at) / RFU FIZ1 (11724087_x_at) / Fold change /veh FIZ1 (11724087_x_at) / RFU OASL (11726364_x_at) / Fold change /veh OASL (11726364_x_at) / RFU SOX15 (11748057_x_at) / Fold change /veh SOX15 (11748057_x_at) / RFU CD79A (11719716_a_at) / Fold change /veh CD79A (11719716_a_at) / RFU HIST1H1D (11736915_at) / Fold change /veh HIST1H1D (11736915_at) / RFU CASKIN2 (11723855_a_at) / Fold change /veh CASKIN2 (11723855_a_at) / RFU LOC730098 (11760151_x_at) / Fold change /veh LOC730098 (11760151_x_at) / RFU OR4N2 (11742367_at) / Fold change /veh OR4N2 (11742367_at) / RFU PRRT2 (11749266_a_at) / Fold change /veh PRRT2 (11749266_a_at) / RFU SNX32 (11753110_a_at) / Fold change /veh SNX32 (11753110_a_at) / RFU CDHR5 (11726645_a_at) / Fold change /veh CDHR5 (11726645_a_at) / RFU RCAN1 (11760418_a_at) / Fold change /veh RCAN1 (11760418_a_at) / RFU FAM167A (11723789_a_at) / Fold change /veh FAM167A (11723789_a_at) / RFU FAM26E (11764081_at) / Fold change /veh FAM26E (11764081_at) / RFU ISYNA1 (11749810_s_at) / Fold change /veh ISYNA1 (11749810_s_at) / RFU ACY1 (11761880_at) / Fold change /veh ACY1 (11761880_at) / RFU 11764098_at / Fold change /veh 11764098_at / RFU SAMD14 (11745864_x_at) / Fold change /veh SAMD14 (11745864_x_at) / RFU NPB (11741838_a_at) / Fold change /veh NPB (11741838_a_at) / RFU TMPRSS6 (11731388_a_at) / Fold change /veh TMPRSS6 (11731388_a_at) / RFU KRTAP10-2 (11738614_at) / Fold change /veh KRTAP10-2 (11738614_at) / RFU ARHGAP8 /// PRR5-ARHGAP8 (11727945_x_at) / Fold change /veh ARHGAP8 /// PRR5-ARHGAP8 (11727945_x_at) / RFU KRTAP5-7 /// NADSYN1 (11734609_at) / Fold change /veh KRTAP5-7 /// NADSYN1 (11734609_at) / RFU RASL12 (11751679_a_at) / Fold change /veh RASL12 (11751679_a_at) / RFU CDKN2B (11736163_a_at) / Fold change /veh CDKN2B (11736163_a_at) / RFU PRF1 (11729649_at) / Fold change /veh PRF1 (11729649_at) / RFU, ZNF638 /// ZNF638-IT1 / Fold change vs veh, ZNF638 /// ZNF638-IT1 / RFU, PANK3 / Fold change vs veh, PANK3 / RFU, SH3YL1 / Fold change vs veh, SH3YL1 / RFU, ZEB2 / Fold change vs veh, ZEB2 / RFU, NRIP1 / Fold change vs veh, NRIP1 / RFU, PTTG1IP / Fold change vs veh, PTTG1IP / RFU, CAPN2 / Fold change vs veh, CAPN2 / RFU, MED14 / Fold change vs veh, MED14 / RFU, SNORA58 / Fold change vs veh, SNORA58 / RFU, C1orf63 / Fold change vs veh, C1orf63 / RFU, LRRFIP1 / Fold change vs veh, LRRFIP1 / RFU, NDUFAF7 / Fold change vs veh, NDUFAF7 / RFU, SLC12A2 / Fold change vs veh, SLC12A2 / RFU, IBTK / Fold change vs veh, IBTK / RFU, ESF1 / Fold change vs veh, ESF1 / Fold change vs veh, TMEM50B / RFU, TAOK1 / Fold change vs veh, TAOK1 / RFU, ACBD3 / Fold change vs veh, ACBD3 / RFU, TMA16 / Fold change vs veh, TMA16 / RFU, RWDD3 / Fold change vs veh, RWDD3 / RFU, BCAT1 / Fold change vs veh, BCAT1 / RFU, EDEM3 / Fold change vs veh, EDEM3 / RFU, TMEM33 / Fold change vs veh, TMEM33 / RFU, WDR75 / Fold change vs veh, WDR75 / RFU, AHCTF1 / Fold change vs veh, AHCTF1 / RFU, TFRC / Fold change vs veh, TFRC / RFU, ZDHHC17 / Fold change vs veh, ZDHHC17 / RFU, NOM1 / Fold change vs veh, NOM1 / RFU, ARL8B / Fold change vs veh, ARL8B / RFU, ZBTB11 / Fold change vs veh, ZBTB11 / RFU, TAMM41 / Fold change vs veh, TAMM41 / RFU, KIAA1704 /// LOC100996395 / Fold change vs veh, KIAA1704 /// LOC100996395 / RFU, ING1 / Fold change vs veh, ING1 / RFU, TRMT61B / Fold change vs veh, TRMT61B / RFU, FUBP3 / Fold change vs veh, FUBP3 / RFU, TP53 / Fold change vs veh, TP53 / RFU, TNKS2 / Fold change vs veh, TNKS2 / RFU, ZFP14 / Fold change vs veh, ZFP14 / RFU, ACTR2 / Fold change vs veh, ACTR2 / RFU, PPP3R1 / Fold change vs veh, PPP3R1 / RFU, PIK3R1 / Fold change vs veh, PIK3R1 / RFU, HNRNPA1 / Fold change vs veh, HNRNPA1 / RFU, RNF170 / Fold change vs veh, RNF170 / RFU, ZNF28 / Fold change vs veh, ZNF28 / RFU, RNGTT / Fold change vs veh, RNGTT / RFU, OGT / Fold change vs veh, OGT / RFU, BRD1 / Fold change vs veh, BRD1 / RFU, MARS / Fold change vs veh, MARS / RFU, ZNF655 / Fold change vs veh, ZNF655 / RFU, FAHD1 / Fold change vs veh, FAHD1 / RFU, BDP1 / Fold change vs veh, BDP1 / RFU, LRRCC1 / Fold change vs veh, LRRCC1 / RFU, ARID1A / Fold change vs veh, ARID1A / RFU, ZNF146 / Fold change vs veh, ZNF146 / RFU, ZNF330 / Fold change vs veh, ZNF330 / RFU, GPN3 / Fold change vs veh, GPN3 / RFU, C9orf123 / Fold change vs veh, C9orf123 / RFU, N4BP2L2 / Fold change vs veh, N4BP2L2 / RFU, ARFIP1 / Fold change vs veh, ARFIP1 / RFU, FAM179B / Fold change vs veh, FAM179B / RFU, BCL10 / Fold change vs veh, BCL10 / RFU, UHRF1BP1L / Fold change vs veh, UHRF1BP1L / RFU, BET1 / Fold change vs veh, BET1 / RFU, CNOT2 / Fold change vs veh, CNOT2 / RFU, ZNF268 / Fold change vs veh, ZNF268 / Fold change vs veh, ZNF507 / RFU, DGCR2 / Fold change vs veh, DGCR2 / RFU, WDSUB1 / Fold change vs veh, WDSUB1 / Fold change vs veh, HSP90B1 /// MIR3652 / RFU, ADSS / Fold change vs veh, ADSS / RFU, GK / Fold change vs veh, GK / RFU, ZNF148 / Fold change vs veh, ZNF148 / RFU, TAF9 / Fold change vs veh, TAF9 / RFU, SLC1A5 / Fold change vs veh, SLC1A5 / RFU, SLMO2 / Fold change vs veh, SLMO2 / RFU, ABCC4 / Fold change vs veh, ABCC4 / RFU, LOC101060439 /// RAP1B / Fold change vs veh, LOC101060439 /// RAP1B / RFU, RFX7 / Fold change vs veh, RFX7 / RFU, GTPBP10 / Fold change vs veh, GTPBP10 / RFU, CNEP1R1 / Fold change vs veh, CNEP1R1 / RFU, BIVM-ERCC5 /// ERCC5 / Fold change vs veh, BIVM-ERCC5 /// ERCC5 / RFU, ILF3 / Fold change vs veh, ILF3 / RFU 11762660_at / Fold change /veh 11762660_at / RFU VCAN (11757783_s_at) / Fold change /veh VCAN (11757783_s_at) / RFU DDX43 (11728927_at) / Fold change /veh DDX43 (11728927_at) / RFU KRT8 (11758188_x_at) / Fold change /veh KRT8 (11758188_x_at) / RFU NKD1 (11759106_at) / Fold change /veh NKD1 (11759106_at) / RFU SRD5A1 (11742802_a_at) / Fold change /veh SRD5A1 (11742802_a_at) / RFU TPSAB1 /// TPSB2 (11721975_s_at) / Fold change /veh TPSAB1 /// TPSB2 (11721975_s_at) / RFU GSTM3 (11746129_a_at) / Fold change /veh GSTM3 (11746129_a_at) / RFU IL23R (11737362_x_at) / Fold change /veh IL23R (11737362_x_at) / RFU TMEM51 (11727254_a_at) / Fold change /veh TMEM51 (11727254_a_at) / RFU PIWIL2 (11732686_x_at) / Fold change /veh PIWIL2 (11732686_x_at) / RFU ORM1 (11744905_x_at) / Fold change /veh ORM1 (11744905_x_at) / RFU CCDC152 (11743942_at) / Fold change /veh CCDC152 (11743942_at) / RFU ECM1 (11717891_a_at) / Fold change /veh ECM1 (11717891_a_at) / RFU IL23R (11748794_a_at) / Fold change /veh IL23R (11748794_a_at) / RFU TNFAIP8L3 (11732012_x_at) / Fold change /veh TNFAIP8L3 (11732012_x_at) / RFU MBOAT4 (11741988_at) / Fold change /veh MBOAT4 (11741988_at) / RFU 11764193_at / Fold change /veh 11764193_at / RFU TMEM53 (11763286_at) / Fold change /veh TMEM53 (11763286_at) / RFU MAGEB2 (11727129_at) / Fold change /veh MAGEB2 (11727129_at) / RFU TMEM200A (11744735_a_at) / Fold change /veh TMEM200A (11744735_a_at) / RFU CCDC152 (11751479_a_at) / Fold change /veh CCDC152 (11751479_a_at) / RFU FAM211A (11726209_a_at) / Fold change /veh FAM211A (11726209_a_at) / RFU RGS16 (11746705_a_at) / Fold change /veh RGS16 (11746705_a_at) / RFU VCAN (11755009_s_at) / Fold change /veh VCAN (11755009_s_at) / RFU RHOB (11743442_s_at) / Fold change /veh RHOB (11743442_s_at) / RFU RGS16 (11720943_a_at) / Fold change /veh RGS16 (11720943_a_at) / RFU RGS16 (11720944_at) / Fold change /veh RGS16 (11720944_at) / RFU, VPS4B / Fold change vs veh, VPS4B / RFU, CREB1 / Fold change vs veh, CREB1 / RFU, DNAJC13 / Fold change vs veh, DNAJC13 / RFU, GNAQ / Fold change vs veh, GNAQ / RFU, CDK5R1 / Fold change vs veh, CDK5R1 / RFU, ZRANB3 / Fold change vs veh, ZRANB3 / RFU, CUL4A / Fold change vs veh, CUL4A / RFU, CCNY / Fold change vs veh, CCNY / RFU, UFL1 / Fold change vs veh, UFL1 / RFU, COG3 / Fold change vs veh, COG3 / RFU, DIAPH2 / Fold change vs veh, DIAPH2 / RFU, SKA2 / Fold change vs veh, SKA2 / RFU, AFF3 / Fold change vs veh, AFF3 / RFU, LMF1 / Fold change vs veh, LMF1 / RFU, IPO11 / Fold change vs veh, IPO11 / RFU, DFFB / Fold change vs veh, DFFB / RFU, FOXP1 / Fold change vs veh, FOXP1 / RFU, CARD8 / Fold change vs veh, CARD8 / RFU, STRN3 / Fold change vs veh, STRN3 / RFU, ADK / Fold change vs veh, ADK / RFU, RASSF2 / Fold change vs veh, RASSF2 / RFU, WIPF1 / Fold change vs veh, WIPF1 / RFU, LARP1B / Fold change vs veh, LARP1B / RFU, RASA1 / Fold change vs veh, RASA1 / RFU, RB1 / Fold change vs veh, RB1 / RFU, PPFIA1 / Fold change vs veh, PPFIA1 / RFU, MAT2A / Fold change vs veh, MAT2A / RFU, CCT5 / Fold change vs veh, CCT5 / RFU, WDR92 / Fold change vs veh, WDR92 / RFU, CUX1 / Fold change vs veh, CUX1 / RFU, TTC7A / Fold change vs veh, TTC7A / RFU, TMEM135 / Fold change vs veh, TMEM135 / RFU, DEPTOR / Fold change vs veh, DEPTOR / RFU, CPM / Fold change vs veh, CPM / RFU, DNAJB6 / Fold change vs veh, DNAJB6 / RFU, CACNA2D3 / Fold change vs veh, CACNA2D3 / RFU, DTX4 / Fold change vs veh, DTX4 / RFU, TFCP2 / Fold change vs veh, TFCP2 / RFU, GMCL1 /// GMCL1P1 / Fold change vs veh, GMCL1 /// GMCL1P1 / RFU, AEBP2 / Fold change vs veh, AEBP2 / RFU, SNHG1 /// SNORD22 /// SNORD25 /// SNORD26 /// SNORD27 /// SNORD28 /// SNORD29 /// SNORD31 / Fold change vs veh, SNHG1 /// SNORD22 /// SNORD25 /// SNORD26 /// SNORD27 /// SNORD28 /// SNORD29 /// SNORD31 / Fold change (Aza/veh), C12orf56 (ProbeSet 11735607_a_at) / Fold change (ACY-1035/veh), C12orf56 (ProbeSet 11735607_a_at) / Fold change (Aza/veh), FGFR1OP (ProbeSet 11751329_s_at) / Fold change (ACY-1035/veh), FGFR1OP (ProbeSet 11751329_s_at) / Fold change (Aza/veh), VPS36 (ProbeSet 11739960_a_at) / Fold change (ACY-1035/veh), VPS36 (ProbeSet 11739960_a_at) / RFU SYPL1 (11715823_x_at) / Fold change /veh SYPL1 (11715823_x_at) / RFU IGFBP7 (11715501_s_at) / Fold change /veh IGFBP7 (11715501_s_at) / RFU REEP3 (11722064_at) / Fold change /veh REEP3 (11722064_at) / RFU IGLL1 (11728026_x_at) / Fold change /veh IGLL1 (11728026_x_at): dose or concentration left out as unconfirmed
Details: ProbeSet 11749551_a_at; LIST B

Nc1ccc(-c2cccs2)cc1NC(=O)c1ccc2c(c1)cc(C1CC1)n2CCN1CCOCC1 [ACY-1035]
Fold change vs veh, RNGTT: 0.96
